Measurements as given in PubChem BioAssay AID1963835 (Molecular Pharmacology Branch, DTP, NCI, 2024).

System: 699152-130-R-J1-PDC complex spheroid viability
Assay: Anticancer human tumor 699152-130-R-J1-PDC patient-derived pancreatic carcinoma cell line growth inhibition [POLQ]
Conditions: for IC50: curve of first compound; for viability, T/C: stronger effect = lower value
Summary of the method: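 Complex spheroid viability model combining PDC tumour cells with endothelial (HUVEC) and MSC stromal cells. Novobiocin, ART-558 or RP6685 were tested singly and in combination with standard and investigational anticancer drugs. Each was titrated in half-log steps from near clinical Cmax, or from 10 microM where Cmax was unknown.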

[1] = second compound 0.0316 µM, first compound 0.0316 µM
[2] = second compound 0.0316 µM, first compound 0.1 µM
[3] = second compound 0.0316 µM, first compound 0.316 µM
[4] = second compound 0.0316 µM, first compound 1 µM
[5] = second compound 0.0316 µM, first compound 3.16 µM
[6] = second compound 0.0316 µM, first compound 10 µM
[7] = second compound 0.1 µM, first compound 0.0316 µM
[8] = second compound 0.1 µM, first compound 0.1 µM
[9] = second compound 0.1 µM, first compound 0.316 µM
[10] = second compound 0.1 µM, first compound 1 µM
[11] = second compound 0.1 µM, first compound 3.16 µM
[12] = second compound 0.1 µM, first compound 10 µM
[13] = second compound 0.316 µM, first compound 0.0316 µM
[14] = second compound 0.316 µM, first compound 0.1 µM
[15] = second compound 0.316 µM, first compound 0.316 µM
[16] = second compound 0.316 µM, first compound 1 µM
[17] = second compound 0.316 µM, first compound 3.16 µM
[18] = second compound 0.316 µM, first compound 10 µM
[19] = second compound 1 µM, first compound 0.0316 µM
[20] = second compound 1 µM, first compound 0.1 µM
[21] = second compound 1 µM, first compound 0.316 µM
[22] = second compound 1 µM, first compound 1 µM
[23] = second compound 1 µM, first compound 3.16 µM
[24] = second compound 1 µM, first compound 10 µM
[25] = second compound 3.16 µM, first compound 0.0316 µM
[26] = second compound 3.16 µM, first compound 0.1 µM
[27] = second compound 3.16 µM, first compound 0.316 µM
[28] = second compound 3.16 µM, first compound 1 µM
[29] = second compound 3.16 µM, first compound 3.16 µM
[30] = second compound 3.16 µM, first compound 10 µM
[31] = second compound 10 µM, first compound 0.0316 µM
[32] = second compound 10 µM, first compound 0.1 µM
[33] = second compound 10 µM, first compound 0.316 µM
[34] = second compound 10 µM, first compound 1 µM
[35] = second compound 10 µM, first compound 3.16 µM
[36] = second compound 10 µM, first compound 10 µM
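Further: spheroids exposed to agents for 7 days before viability reading.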
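Wherever viability, T/C is given: percent of DMSO vehicle control viability so 100% = vehicle and 0% = no viable signal.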

COc1ccc([C@@H](O)c2cc(-c3ncnc4cc(N5CCOCC5)ccc34)c(F)cc2Cl)nn1 + Nc1ccc(C#CCN(C(=O)Cc2ncc(C(F)(F)F)cc2C(F)(F)F)c2ccc(F)cc2)nn1
IC50 (second compound 0.0316 µM): 3.01 µM | IC50 (second compound 0.1 µM): 2.89 µM | IC50 (second compound 0.316 µM): 3.05 µM | IC50 (second compound 1 µM): 3.39 µM | IC50 (second compound 3.16 µM): 3.54 µM | IC50 (second compound 10 µM): 3.89 µM | viability, T/C [1]: 89.7% | viability, T/C [2]: 95.3% | viability, T/C [3]: 82.5% | viability, T/C [4]: 78.8% | viability, T/C [5]: 48.1% | viability, T/C [6]: 19.2% | viability, T/C [7]: 95.2% | viability, T/C [8]: 93.3% | viability, T/C [9]: 91.1% | viability, T/C [10]: 76.4% | viability, T/C [11]: 47.9% | viability, T/C [12]: 25.5% | viability, T/C [13]: 114% | viability, T/C [14]: 93.2% | viability, T/C [15]: 92.5% | viability, T/C [16]: 70.9% | viability, T/C [17]: 50.2% | viability, T/C [18]: 19.3% | viability, T/C [19]: 99.5% | viability, T/C [20]: 100% | viability, T/C [21]: 96.7% | viability, T/C [22]: 85.9% | viability, T/C [23]: 51.8% | viability, T/C [24]: 22.5% | viability, T/C [25]: 101% | viability, T/C [26]: 92.6% | viability, T/C [27]: 90.5% | viability, T/C [28]: 83.4% | viability, T/C [29]: 52.2% | viability, T/C [30]: 21.8% | viability, T/C [31]: 116% | viability, T/C [32]: 105% | viability, T/C [33]: 104% | viability, T/C [34]: 84% | viability, T/C [35]: 54.9% | viability, T/C [36]: 26%

C#Cc1c(F)ccc2cc(O)cc(-c3ncc4c(N5CC6CCC(C5)N6)nc(OCC56CCCN5CC(F)C6)nc4c3F)c12 (stereo not given) + COC1C(OC(N)=O)C(O)C(Oc2ccc3c(O)c(NC(=O)c4ccc(O)c(CC=C(C)C)c4)c(=O)oc3c2C)OC1(C)C
IC50 (second compound 0.0316 µM): < 0.0316 µM | IC50 (second compound 0.1 µM): < 0.0316 µM | IC50 (second compound 0.316 µM): < 0.0316 µM | IC50 (second compound 1 µM): < 0.0316 µM | IC50 (second compound 3.16 µM): < 0.0316 µM | IC50 (second compound 10 µM): < 0.0316 µM | viability, T/C [1]: 24.1% | viability, T/C [2]: 22.1% | viability, T/C [3]: 15.1% | viability, T/C [4]: 14.3% | viability, T/C [5]: 13.6% | viability, T/C [6]: 14.2% | viability, T/C [7]: 25.4% | viability, T/C [8]: 21.3% | viability, T/C [9]: 17% | viability, T/C [10]: 11.4% | viability, T/C [11]: 12.7% | viability, T/C [12]: 11.7% | viability, T/C [13]: 26.2% | viability, T/C [14]: 18.8% | viability, T/C [15]: 16.5% | viability, T/C [16]: 12.8% | viability, T/C [17]: 13.2% | viability, T/C [18]: 11.3% | viability, T/C [19]: 26.8% | viability, T/C [20]: 22.6% | viability, T/C [21]: 17.7% | viability, T/C [22]: 13.2% | viability, T/C [23]: 11.9% | viability, T/C [24]: 12.4% | viability, T/C [25]: 26.3% | viability, T/C [26]: 19.6% | viability, T/C [27]: 18.8% | viability, T/C [28]: 13.7% | viability, T/C [29]: 12.4% | viability, T/C [30]: 12.2% | viability, T/C [31]: 23.9% | viability, T/C [32]: 22.3% | viability, T/C [33]: 17.2% | viability, T/C [34]: 14.2% | viability, T/C [35]: 13.8% | viability, T/C [36]: 12.7%

C=CC(=O)N1CCN(c2nc(=O)n(-c3c(C)ccnc3C(C)C)c3nc(-c4c(O)cccc4F)c(F)cc23)C(C)C1 (stereo not given) + Nc1ccc(C#CCN(C(=O)Cc2ncc(C(F)(F)F)cc2C(F)(F)F)c2ccc(F)cc2)nn1
IC50 (second compound 0.0316 µM): > 10 µM | IC50 (second compound 0.1 µM): > 10 µM | IC50 (second compound 0.316 µM): > 10 µM | IC50 (second compound 1 µM): > 10 µM | IC50 (second compound 3.16 µM): > 10 µM | IC50 (second compound 10 µM): > 10 µM | viability, T/C [1]: 99% | viability, T/C [2]: 91.6% | viability, T/C [3]: 102% | viability, T/C [4]: 117% | viability, T/C [5]: 115% | viability, T/C [6]: 103% | viability, T/C [7]: 92.8% | viability, T/C [8]: 89.6% | viability, T/C [9]: 106% | viability, T/C [10]: 116% | viability, T/C [11]: 123% | viability, T/C [12]: 113% | viability, T/C [13]: 102% | viability, T/C [14]: 106% | viability, T/C [15]: 98.8% | viability, T/C [16]: 118% | viability, T/C [17]: 119% | viability, T/C [18]: 97.4% | viability, T/C [19]: 104% | viability, T/C [20]: 105% | viability, T/C [21]: 103% | viability, T/C [22]: 111% | viability, T/C [23]: 124% | viability, T/C [24]: 117% | viability, T/C [25]: 103% | viability, T/C [26]: 125% | viability, T/C [27]: 102% | viability, T/C [28]: 119% | viability, T/C [29]: 114% | viability, T/C [30]: 95.9% | viability, T/C [31]: 110% | viability, T/C [32]: 110% | viability, T/C [33]: 122% | viability, T/C [34]: 109% | viability, T/C [35]: 125% | viability, T/C [36]: 121%

CC(C)n1c(=O)n(C)c2cnc3cc(F)c(-c4ccc(OCCCN5CCCCC5)nc4)cc3c21 + Nc1ccc(C#CCN(C(=O)Cc2ncc(C(F)(F)F)cc2C(F)(F)F)c2ccc(F)cc2)nn1
IC50 (second compound 0.0316 µM): > 10 µM | IC50 (second compound 0.1 µM): > 10 µM | IC50 (second compound 0.316 µM): > 10 µM | IC50 (second compound 1 µM): > 10 µM | IC50 (second compound 3.16 µM): > 10 µM | IC50 (second compound 10 µM): > 10 µM | viability, T/C [1]: 88.5% | viability, T/C [2]: 111% | viability, T/C [3]: 93.5% | viability, T/C [4]: 97.9% | viability, T/C [5]: 104% | viability, T/C [6]: 96.8% | viability, T/C [7]: 118% | viability, T/C [8]: 103% | viability, T/C [9]: 106% | viability, T/C [10]: 108% | viability, T/C [11]: 101% | viability, T/C [12]: 86.9% | viability, T/C [13]: 98.1% | viability, T/C [14]: 105% | viability, T/C [15]: 103% | viability, T/C [16]: 116% | viability, T/C [17]: 104% | viability, T/C [18]: 89.5% | viability, T/C [19]: 109% | viability, T/C [20]: 93.6% | viability, T/C [21]: 103% | viability, T/C [22]: 111% | viability, T/C [23]: 106% | viability, T/C [24]: 89% | viability, T/C [25]: 116% | viability, T/C [26]: 98.2% | viability, T/C [27]: 112% | viability, T/C [28]: 118% | viability, T/C [29]: 108% | viability, T/C [30]: 86.2% | viability, T/C [31]: 116% | viability, T/C [32]: 119% | viability, T/C [33]: 121% | viability, T/C [34]: 113% | viability, T/C [35]: 112% | viability, T/C [36]: 91.9%

O=C(Nc1ccc(O)c(NS(=O)(=O)c2ccc(F)cc2)c1)c1ccc(-c2ccccc2)cc1 + Nc1ccc(C#CCN(C(=O)Cc2ncc(C(F)(F)F)cc2C(F)(F)F)c2ccc(F)cc2)nn1
IC50 (second compound 0.0316 µM): > 10 µM | IC50 (second compound 0.1 µM): > 10 µM | IC50 (second compound 0.316 µM): > 10 µM | IC50 (second compound 1 µM): > 10 µM | IC50 (second compound 3.16 µM): > 10 µM | IC50 (second compound 10 µM): > 10 µM | viability, T/C [1]: 101% | viability, T/C [2]: 95.9% | viability, T/C [3]: 98.2% | viability, T/C [4]: 111% | viability, T/C [5]: 100% | viability, T/C [6]: 62.8% | viability, T/C [7]: 89.5% | viability, T/C [8]: 102% | viability, T/C [9]: 95.2% | viability, T/C [10]: 103% | viability, T/C [11]: 102% | viability, T/C [12]: 59.4% | viability, T/C [13]: 116% | viability, T/C [14]: 108% | viability, T/C [15]: 114% | viability, T/C [16]: 101% | viability, T/C [17]: 110% | viability, T/C [18]: 68.8% | viability, T/C [19]: 108% | viability, T/C [20]: 103% | viability, T/C [21]: 104% | viability, T/C [22]: 102% | viability, T/C [23]: 102% | viability, T/C [24]: 64.7% | viability, T/C [25]: 104% | viability, T/C [26]: 103% | viability, T/C [27]: 103% | viability, T/C [28]: 107% | viability, T/C [29]: 112% | viability, T/C [30]: 67.9% | viability, T/C [31]: 110% | viability, T/C [32]: 122% | viability, T/C [33]: 114% | viability, T/C [34]: 103% | viability, T/C [35]: 109% | viability, T/C [36]: 59.3%
